Results on two compounds are retold here after article PMC6558205 (Frontiers in Pharmacology, 2019).

Molecules are shown by their SMILES.

Data set [1] deals with T1, human long isoform of D2 receptor (D2LR) (Homo sapiens, UniProt P14416).
T1 construct: expressed in transfected cells; host or cells: HEK293T
As to the kind of experiment: BRET assay of Gi activation, agonistic effect at the D2R canonical pathway, in HEK-293T cells. The settings on record: BRET signal after 5 min stimulation, decrease = activation. The class given is cell-based. For orientation: BRET reads energy transfer from a luciferase to a nearby fluorophore.
Description: HEK293T cells were cultured in Dulbecco’s modified eagle medium (DMEM) supplemented with 10% fetal bovine serum and 100 U/mL penicillin/streptomycin at 37°C in 5% CO2. Forty-eight hours before the experiments, cells were transfected in suspension, using polyethylenimine (PEI; 25 kDa linear; Polysciences, Warrington, PA, USA) at a ratio of 3:1 PEI/DNA, and directly seeded in 96-well white plates (OptiPlate; PerkinElmer) at a density of 4 × 10^4 cells/well and at 37°C in 5% CO2. When needed, total DNA amount was adjusted with salmon sperm DNA (Invitrogen, Carlsbad, CA, USA).

Data set [2] concerns the target T1, human long isoform of D2 receptor (D2LR). Briefly: BRET assay of inhibition of dopamine-induced Gi activation in HEK-293T cells. The data set is classed as cell-based. As to conditions: 100 nM dopamine; for Ki: Ki (nM) (95% CI), apparent affinity, IC50 corrected by Cheng–Prusoff, HEK-293T; for I max for inhibition of the dopamine effect on Gi: text summary over 5 and 20 min. The text has this: (§1) Then, for every compound, we calculate the ratios of their K i and I max values for the two pathways.

For data set [3] the target is unchanged. Briefly: ebBRET assay of inhibition of dopamine-induced β-arrestin-2 translocation in HEK-293T cells. The settings on record: 10 µM dopamine; for Ki: Ki (nM) (95% CI), apparent affinity, IC50 corrected by Cheng–Prusoff, HEK-293T. The data set is classed as cell-based.
From the text: as §1

Data set [4] shares this target. As to the kind of experiment: Estimation of functional selectivity between Gi and β-arr2 pathways (ratios of Ki, Imax, Imax/Ki). The class given is cell-based.
From the text: as §1

A short description of data set [5]: Solubility limit seen in inhibition curves. The class given is physicochemical. The settings on record: complete inhibition curves not obtained in Gi antagonism assay.

T1 sequence (P14416 whole entry, canonical isoform): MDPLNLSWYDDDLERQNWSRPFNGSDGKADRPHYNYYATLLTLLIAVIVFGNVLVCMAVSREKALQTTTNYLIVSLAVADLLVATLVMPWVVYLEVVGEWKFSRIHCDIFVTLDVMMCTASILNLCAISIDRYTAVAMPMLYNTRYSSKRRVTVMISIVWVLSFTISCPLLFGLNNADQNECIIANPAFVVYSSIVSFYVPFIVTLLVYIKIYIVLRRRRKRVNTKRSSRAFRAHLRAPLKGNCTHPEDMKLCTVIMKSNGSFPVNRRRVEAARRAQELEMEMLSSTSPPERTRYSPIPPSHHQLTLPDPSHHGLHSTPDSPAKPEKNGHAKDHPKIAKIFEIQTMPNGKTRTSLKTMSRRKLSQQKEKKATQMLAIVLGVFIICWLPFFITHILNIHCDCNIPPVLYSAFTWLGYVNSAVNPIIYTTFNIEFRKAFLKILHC

Consider `Oc1ccc(N2CCN(Cc3cnn(-c4ccc(Cl)cc4)c3)CC2)cc1` [LQFM 037], for which the “E max for Gi activation (change in BRET signal)” value in data set [1] is on record as −0.04. Besides, the “I max (% dopamine effect) ± S.E.M., 5 min Gi” value in data set [2] (5 min) is 78.9 ± 19.2 % dopamine effect. For the same compound, the “I max (% dopamine effect) ± S.E.M., 20 min Gi” value in data set [2] (20 min) is 71.6 ± 13.7 % dopamine effect. Moreover, the Ki in data set [2] (5 min Gi, 5 min) came to 263 nM; in data set [2] (20 min Gi, 20 min) it was 190 nM; in data set [3] (5 min β-arr, 5 min) it was 353 nM; in data set [3] (20 min β-arr, 20 min), 209 nM. Further, the “I max for inhibition of the dopamine effect on Gi” value in data set [2] is 70–80%. Also, the “I max (% dopamine effect) ± S.E.M., 5 min β-arr” value in data set [3] (5 min) is listed as 71.3 ± 12.3 % dopamine effect. Besides, in data set [3] (20 min), the “I max (% dopamine effect) ± S.E.M., 20 min β-arr” value is reported as 94.2 ± 7.4 % dopamine effect. Also, the figures for the “Imax (Gi)/Imax (β-arr)” value in data set [4] (5 min) and in data set [4] (20 min) were 1.11 and 0.76, respectively. The “Ki (Gi)/Ki (β-arr)” value was 0.74 in data set [4] (5 min) and 0.91 in data set [4] (20 min). Moreover, the Solubility result in data set [5] was “lack of solubility at higher concentrations”.

Take `Clc1ccc(-n2cc(CN3CCN(c4ccccc4)CC3)cn2)cc1` [LASSBio-579, 1-((1-(4-chlorophenyl)-1H-pyrazol-4-yl)methyl)-4-phenylpiperazine]: in data set [1], the “E max for Gi activation (change in BRET signal)” value is on record as −0.07. Besides, in data set [2] (5 min), the “I max (% dopamine effect) ± S.E.M., 5 min Gi” value stood at 75.1 ± 16.3 % dopamine effect. Further, in data set [2] (20 min), the “I max (% dopamine effect) ± S.E.M., 20 min Gi” value is reported as 72.4 ± 9.8 % dopamine effect. For the same compound, the Ki in data set [2] (5 min Gi, 5 min) is 118 nM; in data set [2] (20 min Gi, 20 min), 66.7 nM; in data set [3] (5 min β-arr, 5 min), 109 nM; in data set [3] (20 min β-arr, 20 min), 41.6 nM. Moreover, the “I max for inhibition of the dopamine effect on Gi” value in data set [2] is given as 70–80%. In addition, the “I max (% dopamine effect) ± S.E.M., 5 min β-arr” value in data set [3] (5 min) worked out at 148 ± 20 % dopamine effect. For the same compound, the “I max (% dopamine effect) ± S.E.M., 20 min β-arr” value in data set [3] (20 min) came to 129 ± 12 % dopamine effect. Also, the “Imax (Gi)/Imax (β-arr)” value in data set [4] (5 min) was 0.51; in data set [4] (20 min), 0.56. The “Ki (Gi)/Ki (β-arr)” value was 1.08 in data set [4] (5 min) and 1.60 in data set [4] (20 min). The Solubility result in data set [5] was “lack of solubility at higher concentrations”.
